Measurements reported in ChEMBL document CHEMBL5505982, “Design, synthesis, biological evaluation and in silico studies of novel quinoline derivatives as potential radioprotective molecules targeting the TLR2 and p53 pathways” (Eur J Med Chem, 2024).
Active and inactive are the calls of the source. No cut-off for these calls is given here.

Key:
[1] = system: AHH-1; assay: Cytotoxicity against human AHH-1 cells assessed as inhibition of cell growth incubated for 24 hrs by CCK-8 assay; type: functional, cell-based; settings: AHH-1, 24 h
[2] = system: AHH-1; assay: Anti-iradiation activity against human AHH-1 cells assessed as cell viability at 10 micromol preincubated with compound for 24 hrs followed by irradiation with 8 Gy and measured after 24 hrs by CCK-8 assay; type: functional; settings: dose 10 µmol; time 48 hrs
[3] = system: Mus musculus; assay: Radioprotective activity in C57BL/6J mouse assessed as survival rate at 30 mg/kg, ip preincubated with compound for 15 to 1440 mins followed by irradiation and measured at day 30; type: functional; settings: light or radiation study, time 15-44640 min
[4] = system: Mus musculus; assay: Radioprotective activity in irradiated C57BL/6J mouse model assessed as increase in RBC count at 300 mg/kg, ip preincubated with compound for 15 to 1440 mins followed by irradiation with 6.5 Gy and measured after 10 to 13 days of radiation; type: functional, organism-based; settings: Erythrocyte
[5] = system: AHH-1; assay: Induction of apoptosis in human AHH-1 cells assessed as early apoptotic cells preincubated with compound for 24 hrs followed by irradiation with 8 Gy and measured after 24 hrs of radiation by Annexin V-FITC/PI staining based flow cytometry analysis (reference value: 16.5%); type: functional; settings: time 48 hrs
[6] = system: AHH-1; assay: Induction of apoptosis in human AHH-1 cells assessed as late apoptotic cells preincubated with compound for 24 hrs followed by irradiation with 8 Gy and measured after 24 hrs of radiation by Annexin V-FITC/PI staining based flow cytometry analysis (reference value: 33.6%); type: functional; settings: time 48 hrs
[7] = system: Mus musculus; assay: Radioprotective activity in irradiated C57BL/6J mouse model assessed as increase in platelets count at 300 mg/kg, ip preincubated with compound for 15 to 1440 mins followed by irradiation with 6.5 Gy and measured after 2 days of radiation; type: functional, organism-based; settings: time 15-4320 min
[8] = system: Mus musculus; assay: Radioprotective activity in irradiated C57BL/6J mouse model assessed as increase in platelets count at 300 mg/kg, ip preincubated with compound for 15 to 1440 mins followed by irradiation with 6.5 Gy and measured after 10 to 13 days of radiation; type: functional, organism-based
[9] = system: AHH-1; assay: Induction of apoptosis in human AHH-1 cells assessed as late apoptotic cells preincubated with compound for 24 hrs followed by irradiation with 6 Gy and measured after 24 hrs of radiation by Annexin V-FITC/PI staining based flow cytometry analysis (reference value: 29.8%); type: functional; settings: time 48 hrs
[10] = system: Mus musculus; assay: Radioprotective activity in irradiated C57BL/6J mouse model assessed as increase in HGB count at 300 mg/kg, ip preincubated with compound for 15 to 1440 mins followed by irradiation with 6.5 Gy and measured after 1 to 10 days of radiation; type: functional, organism-based
[11] = system: AHH-1; assay: Induction of apoptosis in human AHH-1 cells assessed as viable cells preincubated with compound for 24 hrs followed by irradiation with 6 Gy and measured after 24 hrs of radiation by Annexin V-FITC/PI staining based flow cytometry analysis (reference value: 52.3%); type: functional; settings: time 48 hrs
[12] = system: AHH-1; assay: Induction of apoptosis in human AHH-1 cells assessed as viable cells preincubated with compound for 24 hrs followed by irradiation with 4 Gy and measured after 24 hrs of radiation by Annexin V-FITC/PI staining based flow cytometry analysis (reference value: 66.9 %); type: functional; settings: time 48 hrs
[13] = system: AHH-1; assay: Induction of apoptosis in human AHH-1 cells assessed as necrotic cells preincubated with compound for 24 hrs followed by irradiation with 8 Gy and measured after 24 hrs of radiation by Annexin V-FITC/PI staining based flow cytometry analysis (reference value: 4.86%); type: functional; settings: time 48 hrs
[14] = system: AHH-1; assay: Induction of apoptosis in human AHH-1 cells assessed as necrotic cells preincubated with compound for 24 hrs followed by irradiation with 4 Gy and measured after 24 hrs of radiation by Annexin V-FITC/PI staining based flow cytometry analysis (reference value: 1.06%); type: functional; settings: time 48 hrs
[15] = system: AHH-1; assay: Induction of apoptosis in human AHH-1 cells assessed as early apoptotic cells preincubated with compound for 24 hrs followed by irradiation with 4 Gy and measured after 24 hrs of radiation by Annexin V-FITC/PI staining based flow cytometry analysis (reference value: 14.3%); type: functional; settings: time 48 hrs
[16] = system: AHH-1; assay: Induction of apoptosis in human AHH-1 cells assessed as early apoptotic cells preincubated with compound for 24 hrs followed by irradiation with 6 Gy and measured after 24 hrs of radiation by Annexin V-FITC/PI staining based flow cytometry analysis (reference value: 14.1%); type: functional; settings: time 48 hrs
[17] = system: AHH-1; assay: Induction of apoptosis in human AHH-1 cells assessed as late apoptotic cells preincubated with compound for 24 hrs followed by irradiation with 4 Gy and measured after 24 hrs of radiation by Annexin V-FITC/PI staining based flow cytometry analysis (reference value: 17.7%); type: functional; settings: time 48 hrs
[18] = system: Mus musculus; assay: Radioprotective activity in irradiated C57BL/6J mouse model assessed as increase in RBC count at 300 mg/kg, ip preincubated with compound for 15 to 1440 mins followed by irradiation with 6.5 Gy and measured after 13 days of radiation; type: functional, organism-based; settings: Erythrocyte, time 15-20160 min
[19] = system: AHH-1; assay: Induction of apoptosis in human AHH-1 cells assessed as viable cells preincubated with compound for 24 hrs followed by irradiation with 8 Gy and measured after 24 hrs of radiation by Annexin V-FITC/PI staining based flow cytometry analysis (reference value: 45.1%); type: functional; settings: time 48 hrs
[20] = system: Mus musculus; assay: Radioprotective activity in irradiated C57BL/6J mouse model assessed as increase in HGB count at 300 mg/kg, ip preincubated with compound for 15 to 1440 mins followed by irradiation with 6.5 Gy and measured after 13 days of radiation; type: functional, organism-based; settings: time 15-20160 min
[21] = system: Mus musculus; assay: Radioprotective activity in irradiated C57BL/6J mouse model assessed as increase in platelets count at 300 mg/kg, ip preincubated with compound for 15 to 1440 mins followed by irradiation with 6.5 Gy and measured after 3 to 10 days of radiation; type: functional, organism-based
[22] = system: Mus musculus; assay: Radioprotective activity in irradiated C57BL/6J mouse model assessed as increase in WBC count at 300 mg/kg, ip preincubated with compound for 15 to 1440 mins followed by irradiation with 6.5 Gy and measured on day 1 (reference value: 43.39%); type: functional; settings: time 15-2880 min
[23] = system: AHH-1; assay: Induction of apoptosis in human AHH-1 cells assessed as necrotic cells preincubated with compound for 24 hrs followed by irradiation with 6 Gy and measured after 24 hrs of radiation by Annexin V-FITC/PI staining based flow cytometry analysis (reference value: 3.71%); type: functional; settings: time 48 hrs

O=S(=O)(Cc1ccc(Cl)cc1)c1ccc2cc(Cl)ccc2n1
IC50 [1]: > 640 µM

[O-][S+](Cc1ccc(Br)cc1)c1ccc2cc(Br)ccc2n1 (centres undefined)
IC50 [1]: > 640 µM

Fc1ccc(CSc2ccc3ccccc3n2)cc1
IC50 [1]: > 640 µM

Clc1ccc(CSc2ccc3cc(Br)ccc3n2)cc1
IC50 [1]: 215 µM

N#Cc1ccc(CS(=O)(=O)c2ccc3cc(Cl)ccc3n2)cc1
IC50 [1]: > 640 µM

O=C(O)c1ccc(CS(=O)(=O)c2ccc3cc(F)ccc3n2)cc1
IC50 [1]: > 640 µM

O=C(O)c1ccc(C[S+]([O-])c2ccc3cc(F)ccc3n2)cc1 (centres undefined)
IC50 [1]: > 640 µM | Activity [2]: 30.18% | survival at 30 mg/kg [3]: 50%

Fc1ccc2nc(SCc3ccccc3)ccc2c1
IC50 [1]: > 640 µM

Fc1ccc(CSc2ccc3cc(Br)ccc3n2)cc1
IC50 [1]: > 640 µM | Activity [2]: 26.21%

[O-][S+](Cc1ccc(F)cc1)c1ccc2cc(Cl)ccc2n1 (centres undefined)
IC50 [1]: > 640 µM

[O-][S+](Cc1ccc(Br)cc1)c1ccc2cc(Cl)ccc2n1 (centres undefined)
IC50 [1]: > 640 µM

Clc1ccc(CSc2ccc3cc(Cl)ccc3n2)cc1
IC50 [1]: > 640 µM

O=C(O)c1ccc(CSc2ccc3cc(Cl)ccc3n2)cc1
IC50 [1]: > 640 µM

[O-][S+](Cc1ccc(Cl)cc1)c1ccc2ccccc2n1 (centres undefined)
IC50 [1]: 97 µM

O=S(=O)(Cc1ccccc1)c1ccc2cc(Br)ccc2n1
IC50 [1]: 169 µM

O=S(=O)(Cc1ccc(F)cc1)c1ccc2cc(F)ccc2n1
IC50 [1]: > 640 µM | Activity [2]: 27.51%

O=S(=O)(Cc1ccc(Br)cc1)c1ccc2cc(Br)ccc2n1
IC50 [1]: > 640 µM

N#Cc1ccc(CSc2ccc3cc(Cl)ccc3n2)cc1
IC50 [1]: > 640 µM

[O-][S+](Cc1ccccc1)c1ccc2cc(Br)ccc2n1 (centres undefined)
IC50 [1]: > 640 µM

[O-][S+](Cc1ccc(Cl)cc1)c1ccc2cc(Br)ccc2n1 (centres undefined)
IC50 [1]: 224 µM | Activity [2]: 30.63%

Brc1ccc(CSc2ccc3ccccc3n2)cc1
IC50 [1]: 174 µM

O=C([O-])c1ccc(/C=C/S(=O)(=O)Cc2ccc(Cl)cc2)cc1.[Na+] [RECILISIB SODIUM]
Activity [4]: Active | Activity [5]: 16.4% | Activity [6]: 27.3% | Activity [7]: Active | Activity [8]: Active | Activity [9]: 28.4% | Activity [10]: inactive | Activity [11]: 49.2% | Activity [12]: 47.5% | IC50 [1]: > 640 µM | Activity [13]: 8.35% | Activity [14]: 4.82% | Activity [15]: 16.5% | Activity [16]: 14.8% | Activity [17]: 31.1% | Activity [18]: Active | Activity [19]: 48% | Activity [20]: Active | Activity [21]: inactive | survival at 30 mg/kg [3]: 40% | Activity [22]: 47.73% | Activity [23]: 7.68%

[O-][S+](Cc1ccc(F)cc1)c1ccc2cc(F)ccc2n1 (centres undefined)
IC50 [1]: > 640 µM

O=S(=O)(Cc1ccccc1)c1ccc2cc(F)ccc2n1
IC50 [1]: > 640 µM

[O-][S+](Cc1ccc(F)cc1)c1ccc2ccccc2n1 (centres undefined)
IC50 [1]: > 640 µM

[O-][S+](Cc1ccc(Cl)cc1)c1ccc2cc(Cl)ccc2n1 (centres undefined)
IC50 [1]: > 640 µM

Brc1ccc2nc(SCc3ccccc3)ccc2c1
IC50 [1]: > 640 µM

O=S(=O)(Cc1ccc(Cl)cc1)c1ccc2cc(Br)ccc2n1
IC50 [1]: > 640 µM | Activity [2]: 27.81%

Fc1ccc(CSc2ccc3cc(Cl)ccc3n2)cc1
IC50 [1]: 153 µM

[O-][S+](Cc1ccc(Br)cc1)c1ccc2ccccc2n1 (centres undefined)
IC50 [1]: > 640 µM

O=S(=O)(Cc1ccc(F)cc1)c1ccc2cc(Cl)ccc2n1
IC50 [1]: > 640 µM

O=S(=O)(Cc1ccc(Br)cc1)c1ccc2cc(Cl)ccc2n1
IC50 [1]: > 640 µM

O=S(=O)(Cc1ccc(Br)cc1)c1ccc2ccccc2n1
IC50 [1]: > 640 µM

Clc1ccc2nc(SCc3ccc(Br)cc3)ccc2c1
IC50 [1]: > 640 µM

Fc1ccc(CSc2ccc3cc(F)ccc3n2)cc1
IC50 [1]: > 640 µM

O=S(=O)(Cc1ccc(F)cc1)c1ccc2cc(Br)ccc2n1
IC50 [1]: > 640 µM

Brc1ccc(CSc2ccc3cc(Br)ccc3n2)cc1
IC50 [1]: > 640 µM

O=S(=O)(Cc1ccc(Cl)cc1)c1ccc2ccccc2n1
IC50 [1]: 129 µM

Clc1ccc(CSc2ccc3ccccc3n2)cc1
IC50 [1]: 73 µM

N#Cc1ccc(C[S+]([O-])c2ccc3cc(Br)ccc3n2)cc1 (centres undefined)
IC50 [1]: 212 µM

N#Cc1ccc(C[S+]([O-])c2ccc3cc(Cl)ccc3n2)cc1 (centres undefined)
IC50 [1]: > 640 µM

N#Cc1ccc(CSc2ccc3cc(Br)ccc3n2)cc1
IC50 [1]: 146 µM
